Source: ChEMBL document CHEMBL1201862, “PubChem BioAssay data set” (2004)
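Assay format: 96-well plates, 48-hour exposure. At the GI50, growth is halved.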 Activity calls are given as the source filed them. No stated cut-off is given here; in the data, active = GI50 up to about 1.1 µM and inactive = higher.

What was measured:
Assay in all cases: inhibition of tumour cell growth, NCI panel, 48 h
786-0 = test system: 786-0
A498 = test system: A498
A549 = test system: A549
ACHN = test system: ACHN
BT-549 = test system: BT-549
CAKI-1 = test system: CAKI-1
CCRF-CEM = test system: CCRF-CEM
COLO 205 = test system: COLO 205
DU-145 = test system: DU-145
EKVX = test system: EKVX
HCC 2998 = test system: HCC 2998
HCT-116 = test system: HCT-116
HCT-15 = test system: HCT-15
HL-60 = test system: HL-60
HOP-62 = test system: HOP-62
HOP-92 = test system: HOP-92
HT-29 = test system: HT-29
Hs-578T = test system: Hs-578T
IGROV-1 = test system: IGROV-1
K562 = test system: K562
KM12 = test system: KM12
LOX IMVI = test system: LOX IMVI
M14 = test system: M14
MCF7 = test system: MCF7
MDA-MB-231 = test system: MDA-MB-231
MDA-MB-435 = test system: MDA-MB-435
MDA-N = test system: MDA-N
MOLT-4 = test system: MOLT-4
Malme-3M = test system: Malme-3M
NCI-H226 = test system: NCI-H226
NCI-H23 = test system: NCI-H23
NCI-H460 = test system: NCI-H460
NCI/ADR-RES = test system: NCI/ADR-RES
OVCAR-3 = test system: OVCAR-3
OVCAR-4 = test system: OVCAR-4
OVCAR-5 = test system: OVCAR-5
OVCAR-8 = test system: OVCAR-8
PC-3 = test system: PC-3
RPMI-8226 = test system: RPMI-8226
RXF 393 = test system: RXF 393
SF-268 = test system: SF-268
SF-295 = test system: SF-295
SF-539 = test system: SF-539
SK-MEL-28 = test system: SK-MEL-28
SK-MEL-5 = test system: SK-MEL-5
SK-OV-3 = test system: SK-OV-3
SN12C = test system: SN12C
SNB-19 = test system: SNB-19
SW-620 = test system: SW-620
T47D = test system: T47D
TK-10 = test system: TK-10
U-251 = test system: U-251
UACC-257 = test system: UACC-257
UACC-62 = test system: UACC-62
UO-31 = test system: UO-31
NCI-H522 = test system: NCI-H522
SK-MEL-2 = test system: SK-MEL-2
SNB-75 = test system: SNB-75
SR = test system: SR

SMILES: O=[N+]([O-])c1cc(Cl)cnc1Br
- GI50 (786-0): 5.83 µM (inactive)
- GI50 (A498): 17.1 µM (inactive)
- GI50 (A549): 2.67 µM (inactive)
- GI50 (ACHN): 2.09 µM (inactive)
- GI50 (BT-549): 3.18 µM (inactive)
- GI50 (CAKI-1): 1.86 µM (inactive)
- GI50 (CCRF-CEM): 4.32 µM (inactive)
- GI50 (COLO 205): 1.34 µM (inactive)
- GI50 (DU-145): 3.71 µM (inactive)
- GI50 (EKVX): 4.19 µM (inactive)
- GI50 (HCC 2998): 1.37 µM (inactive)
- GI50 (HCT-116): 4.42 µM (inactive)
- GI50 (HCT-15): 2.25 µM
- GI50 (HL-60): 3.44 µM (inactive)
- GI50 (HOP-62): 18.3 µM (inactive)
- GI50 (HOP-92): 8.75 µM (inactive)
- GI50 (HT-29): 3.28 µM (inactive)
- GI50 (Hs-578T): 7.16 µM (inactive)
- GI50 (IGROV-1): 2.22 µM (inactive)
- GI50 (K562): 2.64 µM (inactive)
- GI50 (KM12): 4.03 µM (inactive)
- GI50 (LOX IMVI): 1.22 µM (inactive)
- GI50 (M14): 3.87 µM (inactive)
- GI50 (MCF7): 1.32 µM (inactive)
- GI50 (MDA-MB-231): 3.45 µM (inactive)
- GI50 (MDA-MB-435): 2.23 µM (inactive)
- GI50 (MDA-N): 3.33 µM (inactive)
- GI50 (MOLT-4): 1.25 µM (inactive)
- GI50 (Malme-3M): 10.9 µM (inactive)
- GI50 (NCI-H226): 2.61 µM (inactive)
- GI50 (NCI-H23): 5.52 µM (inactive)
- GI50 (NCI-H460): 3.95 µM (inactive)
- GI50 (NCI/ADR-RES): 2.14 µM (inactive)
- GI50 (OVCAR-3): 2.38 µM (inactive)
- GI50 (OVCAR-4): 2.28 µM (inactive)
- GI50 (OVCAR-5): 3.27 µM (inactive)
- GI50 (OVCAR-8): 2.12 µM (inactive)
- GI50 (PC-3): 7.53 µM (inactive)
- GI50 (RPMI-8226): 2.84 µM (inactive)
- GI50 (RXF 393): 1.52 µM (inactive)
- GI50 (SF-268): 2.64 µM (inactive)
- GI50 (SF-295): 3.4 µM (inactive)
- GI50 (SF-539): 2.05 µM (inactive)
- GI50 (SK-MEL-28): 3.33 µM (inactive)
- GI50 (SK-MEL-5): 2.4 µM (inactive)
- GI50 (SK-OV-3): 10.3 µM (inactive)
- GI50 (SN12C): 2.92 µM (inactive)
- GI50 (SNB-19): 9.71 µM (inactive)
- GI50 (SW-620): 3.42 µM (inactive)
- GI50 (T47D): 3.1 µM (inactive)
- GI50 (TK-10): 3.22 µM (inactive)
- GI50 (U-251): 2.16 µM (inactive)
- GI50 (UACC-257): 9.48 µM (inactive)
- GI50 (UACC-62): 1.93 µM (inactive)
- GI50 (UO-31): 1.76 µM (inactive)

SMILES: N#CC(C#N)/N=N/c1ccc(-c2nc3ccccc3[nH]2)cc1
- GI50 (786-0): 21.2 µM (inactive)
- GI50 (A498): > 100 µM (inactive)
- GI50 (A549): > 100 µM (inactive)
- GI50 (ACHN): 13.7 µM (inactive)
- GI50 (BT-549): 11 µM (inactive)
- GI50 (CAKI-1): 24.5 µM (inactive)
- GI50 (CCRF-CEM): 9.84 µM (inactive)
- GI50 (COLO 205): 7.57 µM (inactive)
- GI50 (DU-145): 16.4 µM (inactive)
- GI50 (EKVX): 50.7 µM (inactive)
- GI50 (HCT-116): 15.4 µM (inactive)
- GI50 (HCT-15): 21.7 µM
- GI50 (HL-60): 0.288 µM (active)
- GI50 (HOP-62): > 100 µM (inactive)
- GI50 (HOP-92): 22.5 µM (inactive)
- GI50 (HT-29): 28.7 µM (inactive)
- GI50 (Hs-578T): 52 µM (inactive)
- GI50 (IGROV-1): 16.8 µM (inactive)
- GI50 (K562): 19.6 µM (inactive)
- GI50 (KM12): 59.2 µM (inactive)
- GI50 (LOX IMVI): 14.7 µM (inactive)
- GI50 (M14): 20.8 µM (inactive)
- GI50 (MCF7): 11.1 µM (inactive)
- GI50 (MDA-MB-231): 13.7 µM (inactive)
- GI50 (MDA-MB-435): 18 µM (inactive)
- GI50 (MDA-N): 20 µM (inactive)
- GI50 (MOLT-4): 10.9 µM (inactive)
- GI50 (Malme-3M): 13.6 µM (inactive)
- GI50 (NCI-H226): 50.1 µM (inactive)
- GI50 (NCI-H23): 20 µM (inactive)
- GI50 (NCI-H460): 94.6 µM (inactive)
- GI50 (NCI-H522): 2.81 µM (inactive)
- GI50 (NCI/ADR-RES): 17.6 µM (inactive)
- GI50 (OVCAR-3): 13.8 µM (inactive)
- GI50 (OVCAR-4): 22 µM (inactive)
- GI50 (OVCAR-5): > 100 µM (inactive)
- GI50 (OVCAR-8): 23.1 µM (inactive)
- GI50 (PC-3): 15.8 µM (inactive)
- GI50 (RPMI-8226): 20.7 µM (inactive)
- GI50 (RXF 393): 19.2 µM (inactive)
- GI50 (SF-268): 28.2 µM (inactive)
- GI50 (SF-295): > 100 µM (inactive)
- GI50 (SF-539): 15.9 µM (inactive)
- GI50 (SK-MEL-28): 20.2 µM (inactive)
- GI50 (SK-MEL-2): 21.7 µM (inactive)
- GI50 (SK-MEL-5): 35.6 µM (inactive)
- GI50 (SK-OV-3): > 100 µM (inactive)
- GI50 (SN12C): > 100 µM (inactive)
- GI50 (SNB-19): > 100 µM (inactive)
- GI50 (SNB-75): 42 µM (inactive)
- GI50 (SR): 18.5 µM (inactive)
- GI50 (SW-620): 11.5 µM (inactive)
- GI50 (T47D): 16.6 µM (inactive)
- GI50 (TK-10): 30.8 µM (inactive)
- GI50 (U-251): 28.1 µM (inactive)
- GI50 (UACC-257): 14.9 µM (inactive)
- GI50 (UO-31): 14 µM (inactive)
